Biological target: T1, MIZ1^BTB (Homo sapiens, UniProt Q13105)
T1 construct: gene ZBTB17; BTB domain, residues 1-115; N-terminal Trx-His6 tag cleaved with PreScission; E. coli BL21(DE3); 13C,15N-labelled; homodimer in solution
T1 sequence (Q13105 1-115): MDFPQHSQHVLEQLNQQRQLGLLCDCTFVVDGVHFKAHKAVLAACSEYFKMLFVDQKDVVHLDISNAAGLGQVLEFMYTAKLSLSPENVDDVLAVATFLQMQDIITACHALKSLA
Assay: 1H-15N HSQC NMR titration
Type: binding

Compound | Kd [µM]
Nc1ccc(-n2cnc(Cl)c2Cl)cc1 [2GG4] | 68 ± 9
OC1(c2ccc(Cl)c(C(F)(F)F)c2)CCNCC1 [4CC2] | 425 ± 59
Cc1nc2ccc(Cl)cc2nc1C [5DD7] | 870 ± 140

Reference: paper PMC9668832, “Increased slow dynamics defines ligandability of BTB domains” (Nature Communications, 2022)
